Reference: patent US20220016271A1, “METHODS FOR TREATING CANCER” (The Brigham and Women`s Hospital, Inc., priority 2018, published 2022)

Legend:
[1] = test system: A549 (p53 wild type); format: cell-based; conditions: p53 mRNA 1 μg/mL; metformin 4 or 6 mg/mL (FIG. 60)
Procedure: Experimental Methods. […] Then, the cell viabilities of these cells were measured by Alamar blue assay. […] The cells without receiving any treatments were labeled as the “Control”.

[2] = test system: p53-null Hep3B cells; assay: Western blot, IF, TEM and GFP-LC3B CLSM analysis of p53, cell cycle, apoptosis, mTOR and autophagy pathways; format: cell-based, human
Procedure: (§1) Western blot assay. Cells or dissected tumors in each group were lysed in a lysis buffer (1 mM EDTA, 20 mM Tris-HCl pH 7.6, 140 mM NaCl, 1% aprotinin, 1% NP-40, 1 mM phenylmethylsulphonyl fluoride, and 1 mM sodium vanadate), and supplemented with protease inhibitor cocktail (Cell Signaling Technology). Protein concentration was detected by a bicinchoninic acid (BCA) Protein Assay Kit (Pierce). 25 μg of proteins were loaded on 6-12% precast gels (Invitrogen), and then transferred to Immobilon PVDF membranes (Bio-Rad, 162-0176 and 162-0177). The transferred membranes were blocked with 5% bovine serum albumin (BSA) in TBST (150 mM NaCl, 50 mM Tris-HCl at pH 7.4, and 0.1% Tween 20) for 1 hour at room temperature, and were further incubated with primary antibodies overnight at 4° C. The immunoreactive bands were detected with appropriate HRP-conjugated secondary antibodies. Band density was detected by enhanced chemiluminescence (ECL) detection system (Amersham/GE Healthcare).
Immunofluorescent staining and TEM detection. Cells or tumor tissues were fixed with 4% paraformaldehyde (Electron Microscopy Sciences) at room temperature for 15 min, followed by permeabilization in 0.2% Triton X-100-PBS for 10 min. Samples were further incubated with PBS blocking buffer (containing 2% BSA, 2% normal goat serum, and 0.2% gelatin) at room temperature for 30 min. Afterwards, the samples were incubated with primary antibody overnight at 4° C., washed with PBS, and incubated in goat anti-rat-Alexa Fluor 647 (Molecular Probes) in blocking buffer (1:1000 dilution) at room temperature for 60 min. Stained samples were washed with PBS, nuclei were stained using Hoechst 33342 (Molecular Probes-Invitrogen, H1399, 1:2000 dilution in PBS), and the samples were mounted on slides with Prolong Gold antifade mounting medium (Life Technologies). […]
(§2) Quantification of GFP-LC3B puncta. […] A confocal fluorescence microscope was used to observe the fluorescence of GFP-LC3B. To quantify the extent of autophagy, cells showing accumulation of GFP-LC3B in vacuoles or dots were counted. […]

[3] = test system: p53-null H1299 cells; assay: Western blot, IF, TEM and GFP-LC3B CLSM analysis of p53, apoptosis, mTOR and autophagy pathways; format: cell-based, human
Procedure: as §1
Immunofluorescent staining and TEM detection. […]
as §2

[4] = test system: p53-null H1299 liver metastases; assay: In vivo therapeutic efficacy in p53-null disseminated NSCLC model (liver metastases); set-up: species or system athymic nude mice; conditions: mRNA 750 μg/kg IV; everolimus 5 mg/kg oral; five rounds
Procedure: In vivo therapeutic efficacy in p53-null disseminated NSCLC model. To establish the experimental disseminated metastatic model, ˜1×10^6p53-null H1299 cells in 100 μl of PBS were injected via tail vein into female athymic nude mice. […] The first treatment was performed at Day 0. On Day 15, all the mice were sacrificed, and one liver was randomly selected from each group for H&E staining. The liver section from each group was divided into four regions for calculation of the metastasis numbers (FIG. 55).

[5] = test system: p53-null Hep3B tumor sections; assay: In vivo mechanisms (IF, IHC, TUNEL, WB of tumor sections); set-up: species or system athymic nude mice; conditions: mouse
Procedure: In vivo mechanisms underlying the p53-mRNA NP-mediated sensitization to everolimus. […] The mice were sacrificed at 12, 24, 48, or 60 hours after the last injection of p53-mRNANPs, and the tumors were harvested for sections. Mice bearing p53-null Hep3B liver xenografts and intravenously injected with PBS were used as controls and sacrificed at 60 hours after the last injection. The expression of p53 and C-CAS3 was monitored via IF detection. Moreover, tumor sections from both the PBS group and p53-mRNANP group (60 hours after the last injection) were analyzed by IHC. The expression of p53, tumor cell apoptosis markers (BAX, C-CAS3), and proliferation markers (Ki67 and PCNA) was further assessed.
Western blot assay. Cells or dissected tumors in each group were lysed in a lysis buffer (1 mM EDTA, 20 mM Tris-HCl pH 7.6, 140 mM NaCl, 1% aprotinin, 1% NP-40, 1 mM phenylmethylsulphonyl fluoride, and 1 mM sodium vanadate), and supplemented with protease inhibitor cocktail (Cell Signaling Technology). Protein concentration was detected by a bicinchoninic acid (BCA) Protein Assay Kit (Pierce). […] The immunoreactive bands were detected with appropriate HRP-conjugated secondary antibodies. Band density was detected by enhanced chemiluminescence (ECL) detection system (Amersham/GE Healthcare). […]

[6] = test system: p53-null H1299 cells; assay: Cell viability by AlamarBlue assay; format: cell-based, human
Procedure: (§3) Cell viability and transfection efficiency of EGFP-mRNA NPs. The p53-null Hep3B cells or H1299 cells were plated in 96-well plates at a density of 3×10^3 cells per well. […] Lip2k was used as a positive control for transfection efficiency comparison with the NPs. Cell viability was tested by AlamarBlue assay, which is a non-toxic assay that can continuously check real-time cell proliferation through a microplate reader (TECAN, Infinite M200 Pro). Absorbance was examined by a 96-well SpectraMax plate reader (Molecular Devices) at 545 nm and 590 nm. To measure the transection efficiency, cells were treated with EGFP-mRNA by NPs or Lip2k for 24 hours, detached with 2.5% EDTAtrypsin, and collected in PBS solution, followed by evaluating GFP expression using flow cytometry (BD Biosystems). The percentages of EGFP-positive cells were calculated and analyzed by Flowjo software.
(§4) Combination index (CI) calculation.

[7] = test system: p53-null Hep3B cells; assay: Cell viability by AlamarBlue assay; format: cell-based, human
Procedure: as §3, §4

[8] = test system: p53-null Hep3B xenografts; assay: In vivo therapeutic efficacy in p53-null HCC xenograft tumor model; set-up: species or system athymic nude mice; conditions: mRNA 750 μg/kg IV; everolimus 5 mg/kg oral; every three days, six treatments
Procedure: In vivo therapeutic efficacy in p53-null HCC xenograft tumor model. […] The day that first treatment was performed was designated as Day 0. […] The body weights of all the mice were also recorded over this period.
as §4

[9] = test system: H1299 cells; assay: Apoptosis detection (Annexin V/PI, flow cytometry); format: cell-based, human; conditions: AnnV/PI co-staining
Procedure: (§5) Apoptosis and cell cycle detection in vitro. We used an FITC Annexin V/Propidium iodide (PI) apoptosis detection kit (BD Biosciences) to detect apoptosis. In brief, 1×10^6 cells were seeded into 6-well plates. After attachment overnight, cells were treated with p53-mRNA NPs for 24 hours before being mixed with 1 ml fresh medium and continuing to culture for another 24 h. All the attached cells together with the floating cells in the medium were harvested, washed with PBS twice, and dispersed in 1× binding buffer solution (ice-cold) at a concentration of 1×10^6 cells/ml. 5 μl of FITC Annexin V and 5 μl of PI were further mixed with 100 μl of the cell suspension. We then incubated the mixture at room temperature for 15 min in a dark environment and performed analysis using the FACS Calibur Flow Cytometer (BD Biosystems). Cells were incubated for 48 hours with empty NPs, naked p53-mRNA, or p53-mRNANPs washed in PBS and fixed with 70% ethanol overnight, then washed in PBS twice and incubated with PI for 30 minutes at 37° C.; cell-cycle fractions (percentage of cells with fractional DNA content in G1, S, and G2/M phases of the cycle) were estimated by flow cytometry and analyzed by Flowjo software.

[10] = test system: Hep3B cells; assay: Apoptosis detection (Annexin V/PI, flow cytometry); format: cell-based, human; conditions: AnnV/PI co-staining
Procedure: as §5

[11] = test system: Hep3B-Luc orthotopic tumors; assay: In vivo therapeutic efficacy in p53-null orthotopic HCC model (bioluminescence); set-up: species or system athymic nude mice; conditions: mRNA 750 μg/kg IV; everolimus 5 mg/kg oral; every three days, 4 rounds
Procedure: In vivo therapeutic efficacy in p53-null orthotopic HCC model. To establish the orthotopic HCC model, luciferase-expressing Hep3B (Hep3B-Luc) cells were used. Six-week-old female athymic nude mice were obtained from Zhejiang Medical Academy Animal Center. Animal studies were conducted following the protocol approved by the Institutional Animal Ethics Committee of Hangzhou Normal University. First, anterior abdominal exposure was made and a cotton swab with iodine volts was used to sterilize this area. A one-centimeter-long midline incision was made along the anterior abdominal wall below the xiphoid after anesthesia by isoflurane, and ˜5×10^6 p53-null Hep3B-Luc cells in 50 μl of PBS were injected into the left lobe of the livers of the athymic nude mice (30 in total). The injection depth was not deeper than 2 mm. The inner and outer layers of the abdominal cavity were sutured one by one after tumor cell inoculation. […] The first treatment was performed at Day 0. On Day 12, all the mice were sacrificed. Mice were monitored for tumor growth by bioluminescent in vivo imaging every 6 days (Day 0, 6, and 12). To do this, these mice were injected intraperitoneally with 150 mg/kg D-luciferin substrate (PerkinElmer, Catalog #122799) and imaged by an IVIS Lumina S5 (PerkinElmer) imaging system.

[12] = increasing everolimus concentrations

| SMILES | cells dead / killed [1] | autophagy activation (WB, autophagosomes by TEM, GFP-LC3B by CLSM) [2] | LC3B-2 and LC3B-2/actin ratio (WB) ([2]; increase of everolimus concentration) | mTOR pathway targets (p-mTOR and p-p70S6K; WB) [2, 12] | autophagy activation (WB, autophagosomes by TEM, GFP-LC3B by CLSM) [3] | mTOR pathway targets (p-mTOR and p-p70S6K; WB) [3, 12] | metastatic nodules in the liver [4] | autophagy in tumors (LC3B-2 relative to actin, BECN1; WB) [5] | viability at 0.016 µM ([6]; Homo sapiens, NCI-H1299, mRNA 0.415 μg/ml, everolimus 16 nM) [%] | cells still alive ([6]; at 64 nM) | cell viability [6, 12] | viability at 0.032 µM ([7]; Homo sapiens, Hep3B, mRNA 0.415 μg/ml, everolimus 32 nM) [%] | cells still alive ([7]; at 64 nM) | cell viability [7, 12] | tumor growth [8] | cell apoptosis [9] | cell apoptosis [10] | orthotopic tumor growth / burden (bioluminescence) [11] |
| --- | --- | --- | --- | --- | --- | --- | --- | --- | --- | --- | --- | --- | --- | --- | --- | --- | --- | --- |
| N.N.[Cl][Pt][Cl] [cisplatin] | less than 50% |  |  |  |  |  |  |  |  |  |  |  |  |  |  |  |  |  |
| CO[C@H]1C[C@@H]2CC[C@@H](C)[C@@](O)(O2)C(=O)C(=O)N2CCCC[C@H]2C(=O)O[C@H]([C@H](C)C[C@@H]2CC[C@@H](OCCO)[C@H](OC)C2)CC(=O)[C@H](C)/C=C(\C)[C@@H](O)[C@@H](OC)C(=O)[C@H](C)C[C@H](C)/C=C/C=C/C=C/1C [everolimus, Everolimus] |  | activation of autophagy | upregulation of LC3B-2 and higher LC3B-2/actin ratios | substantially blocked | activation of autophagy | substantially blocked | moderate effects | induced autophagy | > 80 | over 50% | no significant decrease in cell viability | ~70 | over 50% | no significant decrease in cell viability | moderate anti-tumor activity | moderate apoptotic cell death | moderate apoptotic cell death | somewhat inhibited the growth of orthotopic tumors |
